In assay [1] the target is T1, Myt1 kinase (recombinant PMYT-1) (Homo sapiens, UniProt Q99640).
T1 construct: full length PMYT-1 was expressed by baculovirus in insect cells; purchased Invitrogen A30984; host or cells: insect cells (baculovirus)
T1 sequence (Q99640 1-499): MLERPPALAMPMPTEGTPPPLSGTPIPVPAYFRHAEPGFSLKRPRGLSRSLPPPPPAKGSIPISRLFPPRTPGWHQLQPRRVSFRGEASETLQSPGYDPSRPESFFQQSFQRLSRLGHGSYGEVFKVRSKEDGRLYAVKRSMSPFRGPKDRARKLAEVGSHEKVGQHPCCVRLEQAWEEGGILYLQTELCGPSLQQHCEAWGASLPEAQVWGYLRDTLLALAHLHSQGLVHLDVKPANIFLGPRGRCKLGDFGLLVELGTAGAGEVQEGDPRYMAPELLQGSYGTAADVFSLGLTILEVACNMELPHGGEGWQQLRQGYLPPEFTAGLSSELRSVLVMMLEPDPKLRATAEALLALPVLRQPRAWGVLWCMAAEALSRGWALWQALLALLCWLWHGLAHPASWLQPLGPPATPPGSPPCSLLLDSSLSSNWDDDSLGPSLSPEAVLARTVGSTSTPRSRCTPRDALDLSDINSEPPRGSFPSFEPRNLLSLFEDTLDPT
Kind of assay: Myt1 kinase binding assay (LanthaScreen Eu Kinase Binding Assay). An outline of the steps:
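Compound binding to Myt1 kinase was assessed using the LanthaScreen Eu Kinase Binding Assay. This europium-based binding format was applied to quantify how strongly each compound bound to the Myt1 enzyme, and the binding affinity was reported for each compound as an IC50 value.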

Assay [2] addresses T2, Wee1A kinase (CDK1 Tyr15 phosphorylation in ACHN renal cell carcinoma cells) (Homo sapiens, UniProt P30291).
T2 construct: pCDK1 Tyr15 immunofluorescence read-out
Kind of assay: High-content imaging of pCdk1 Y15, Wee1A kinase target engagement in ACHN cells. In kind it is cell-based. An outline of the steps: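 EC50 values come from the per-well fraction of cells with nuclear pCdk1 Y15 staining, normalised to DMSO control, by automated immunofluorescence imaging. Cells were ACHN renal carcinoma, treated 4 h with compound at 7–5,000 nM or 0.3–200 nM.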

Assay [3] deals with T3, recombinant human Wee1A kinase (Homo sapiens, UniProt P30291).
T3 construct: full length Wee1 kinase was expressed by baculovirus in insect cells; purchased Invitrogen PV3817; host or cells: insect cells (baculovirus)
T3 sequence (P30291 whole entry): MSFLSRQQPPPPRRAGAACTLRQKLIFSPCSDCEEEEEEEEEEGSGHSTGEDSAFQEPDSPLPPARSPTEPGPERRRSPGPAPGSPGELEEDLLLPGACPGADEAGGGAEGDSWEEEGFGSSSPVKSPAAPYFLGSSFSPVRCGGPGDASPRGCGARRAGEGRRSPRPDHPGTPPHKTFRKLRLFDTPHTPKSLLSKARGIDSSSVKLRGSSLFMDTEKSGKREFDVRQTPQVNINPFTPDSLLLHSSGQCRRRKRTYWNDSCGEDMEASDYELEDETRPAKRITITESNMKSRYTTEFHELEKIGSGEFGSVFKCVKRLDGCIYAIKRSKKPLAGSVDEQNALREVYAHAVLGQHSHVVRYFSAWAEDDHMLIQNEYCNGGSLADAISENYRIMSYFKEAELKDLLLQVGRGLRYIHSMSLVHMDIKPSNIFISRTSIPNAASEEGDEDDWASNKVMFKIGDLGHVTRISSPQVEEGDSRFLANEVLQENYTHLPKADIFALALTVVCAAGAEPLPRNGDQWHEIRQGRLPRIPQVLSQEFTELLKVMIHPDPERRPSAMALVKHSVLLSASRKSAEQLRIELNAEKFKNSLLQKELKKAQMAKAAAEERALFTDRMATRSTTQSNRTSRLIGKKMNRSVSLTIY
Kind of assay: Wee1A kinase binding assay (LanthaScreen Eu time-resolved FRET). In a few lines: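 Full-length, baculovirus-expressed GST-tagged Wee1A (5 nM) was mixed with 2 nM Eu-anti-GST antibody, 30 nM kinase tracer 178 and compound (1% DMSO). Buffer was 50 mM HEPES pH 7.5, 10 mM MgCl2, 1 mM EGTA, 0.01% Brij-35, incubated 60 min at room temperature. TR-FRET 665/615 nm emission ratios from duplicates were curve-fitted.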

For assay [4], the system named is ACHN cells. In words: Cell Titer Glo viability assay, ACHN cells. In kind it is cell-based. The settings on record: Homo sapiens, 144 h, absolute EC50. As to the method:
Each of an ACHN renal cell carcinoma cell line (ATCC) and a DAOY medulloblastoma cell line, and an A427 lung cancer line were cultured in Minimum Essential Medium Eagle supplemented with 10% fetal calf serum (Sigma), 1% Penicillin-Streptomycin and 10 mM HEPES buffer (HyClone). Cell cultures were kept in a humidified incubator at 37 °C and 5% CO2. Cells were routinely tested for Mycoplasma contamination.
ACHN cells, DAOY cells, or A427 cells were seeded at a density of 400, 250, or 500 cells per well respectively, in tissue culture treated 384 well plates (Corning Costar). After overnight incubation, cells were treated with drugs at concentrations ranging from 17 to 10 000 nM. Viability compared to untreated control was assessed at 144 h using Cell Titer Glo assay 2.0 (Promega). […] “NT” means the compounds was not tested in the indicated cells.
(In general: ATP-based viability assays read luminescence as a measure of living cells.)

Setting [5] is: 3 nM tracer 178, 2.5 nM PMYT-1, 1 nM Eu-labeled antibody, read-out: Myt1 kinase Binding IC50.
Where [6] appears, read: 4 h treatment, nuclear positivity for pCdk1 Y15 vs DMSO control, read-out: CDK1 Tyr15 Phosphorylation EC50.
Where [7] appears, read: 30 nM tracer 178, 5 nM Wee1A kinase, 2 nM Eu-labeled antibody, 60 minutes at room temperature, read-out: Wee1A kinase Binding IC50.
The mark [8] stands for this setting: Myt1 kinase Binding IC50, 3 nM tracer 178, 2.5 nM PMYT-1, 1 nM Eu-labeled antibody.
Where [9] appears, read: read-out: CDK1 Tyr15 Phosphorylation EC50, 4 h treatment, nuclear positivity for pCdk1 Y15 vs DMSO control.

Here are results for 15 compounds from patent publication US20260364080A1, “PYRAZOLO-PYRIMIDINONE COMPOUNDS FOR USE IN METHODS OF INHIBITING WEE1 A KINASE” (Acrivon Therapeutics, Inc., priority 2023, published 2026).

A word on the pIC50: it is −log10 of the IC50, conventionally taken in molar units. Broadly, the pEC50 is −log10 of the EC50, conventionally taken in molar units.

pEC50, pIC50: −log10 of the molar value. Like-named read-outs stand apart in the source and are kept apart here.

T2 sequence (P30291 whole entry): as above

Consider `C=CCn1c(=O)c2cnc(Nc3ccc(F)cc3)nc2n1-c1cccc(OC2CCNCC2)n1` [Compound 304, 2-allyl-6-(p-fluorophenylamino)-1-[6-(4-piperidyloxy)-2-pyridyl]-1,2-dihydro-3H-1,2,5,7-tetraazainden-3-one], for which the values for the pIC50 in assay [1] (setting [5]) and in assay [3] (setting [7]) were 7.00 to 7.70 and > 8.00, respectively. Moreover, the pEC50 in assay [2] (setting [6]) was > 7.00; in assay [4], 6.30 to 7.00.

For `C=CCn1c(=O)c2cnc(Nc3ccc(F)cc3)nc2n1-c1ccnc(NC2CCN(C)CC2)n1` [Compound 312, 2-allyl-6-(p-fluorophenylamino)-1-[2-(1-methyl-4-piperidylamino)-4-pyrimidinyl]-1,2-dihydro-3H-1,2,5,7-tetraazainden-3-one], the pIC50 was 6.30 to 7.00 in assay [1] (setting [5]) and > 8.00 in assay [3] (setting [7]). In addition, the pEC50 in assay [2] (setting [6]) is > 7.00; in assay [4] it was 6.30 to 7.00.

On to `CCn1c(=O)c2cnc(Nc3ccc4c(cnn4C)c3)nc2n1-c1cccc(OC2CCNCC2)n1` [Compound 306, 2-ethyl-6-(1-methyl-1H-indazol-5-ylamino)-1-[6-(4-piperidyloxy)-2-pyridyl]-1,2-dihydro-3H-1,2,5,7-tetraazainden-3-one], for which the pIC50 in assay [1] (setting [5]) is 7.00 to 7.70; in assay [3] (setting [7]), > 8.00. Also, the pEC50 in assay [2] (setting [6]) and in assay [4] was 6.30 to 7.00 throughout.

Turning to `C=CCn1c(=O)c2cnc(Nc3ccc4c(cnn4C)c3)nc2n1-c1cccc(N(C)C2CCNCC2)n1` [Compound 116, 1-[6-(N-methyl-N-4-piperidylamino)-2-pyridyl]-2-allyl-6-(1-methyl-1H-indazol-5-ylamino)-1,2-dihydro-3H-1,2,5,7-tetraazainden-3-one], the pIC50 in assay [1] (setting [8]) was < 6.30; in assay [3] it was > 8.00. The figures for the pEC50 in assay [2] (setting [9]) and in assay [4] were > 7.00 and 6.30 to 7.00, respectively.

With `C=CCn1c(=O)c2cnc(Nc3ccc(C#N)cc3)nc2n1-c1cccc(OC2CCN(C)CC2)n1` [Compound 301, p-{2-allyl-1-[6-(1-methyl-4-piperidyloxy)-2-pyridyl]-3-oxo-1,2-dihydro-3H-1,2,5,7-tetraazainden-6-ylamino}benzonitrile], the pIC50 in assay [1] (setting [5]) is 7.00 to 7.70; in assay [3] (setting [7]) it was > 8.00. The pEC50 in assay [2] (setting [6]) is > 7.00; in assay [4], ≥ 7.00.

With `C=CCn1c(=O)c2cnc(Nc3cnn(CCC)c3)nc2n1-c1cccc(OC2CCN(C)CC2)n1` [Compound 180, 2-allyl-1-[6-(1-methyl-4-piperidyloxy)-2-pyridyl]-6-(1-propyl-4-pyrazolylamino)-1,2-dihydro-3H-1,2,5,7-tetraazainden-3-one], the pIC50 was 6.30 to 7.00 in assay [1] (setting [5]) and > 8.00 in assay [3] (setting [7]). For the same compound, the pEC50 was > 7.00 in assay [2] (setting [6]) and ≥ 7.00 in assay [4].

Consider `C=CCn1c(=O)c2cnc(Nc3ccc(OCC(F)(F)F)cc3)nc2n1-c1ccnc(NC2CCN(C)CC2)n1` [Compound 314, 2-allyl-1-[2-(1-methyl-4-piperidylamino)-4-pyrimidinyl]-6-[p-(2,2,2-trifluoroethoxy)phenylamino]-1,2-dihydro-3H-1,2,5,7-tetraazainden-3-one], for which the pIC50 in assay [1] (setting [5]) is 7.00 to 7.70; in assay [3] (setting [7]) it was > 8.00. Also, the pEC50 is > 7.00 in assay [2] (setting [6]) and ≥ 7.00 in assay [4].

Turning to `C=CCn1c(=O)c2cnc(Nc3ccc(OCCCF)cc3)nc2n1-c1cccc(OC2CCNCC2)n1` [Compound 377], the pIC50 is > 7.70 in assay [1] (setting [5]) and > 8.00 in assay [3] (setting [7]). Further, the values for the pEC50 in assay [2] (setting [6]) and in assay [4] were > 7.00 and ≥ 7.00, respectively.

With `C=CCn1c(=O)c2cnc(Nc3ccc(OCC(C)C)cc3)nc2n1-c1cccc(OC2CCNCC2)n1` [Compound 256, 2-allyl-6-((4-isobutoxyphenyl)amino)-1-(6-(piperidin-4-yloxy)pyridin-2-yl)-1,2-dihydro-3H-pyrazolo[3,4-d]pyrimidin-3-one], the pIC50 in assay [1] (setting [5]) is > 7.70; in assay [3] (setting [7]) it was > 8.00. Besides, the pEC50 in assay [2] (setting [6]) was > 7.00; in assay [4], ≥ 7.00.

On to `Cn1ccc2cc(Nc3ncc4c(=O)n(C)n(-c5cccc(OC6CCNCC6)n5)c4n3)ccc21` [Compound 336, 2-methyl-6-((1-methyl-1H-indol-5-yl)amino)-1-(6-(piperidin-4-yloxy)pyridin-2-yl)-1,2-dihydro-3H-pyrazolo[3,4-d]pyrimidin-3-one], for which the results for the pIC50 in assay [1] (setting [5]) and in assay [3] (setting [7]) were 7.00 to 7.70 and > 8.00, respectively. Besides, the figures for the pEC50 in assay [2] (setting [6]) and in assay [4] were > 7.00 and 6.30 to 7.00, respectively.

For `C=CCn1c(=O)c2cnc(Nc3cccc(C#N)c3)nc2n1-c1cccc(OC2CCN(C)CC2)n1` [Compound 305, m-{2-allyl-1-[6-(1-methyl-4-piperidyloxy)-2-pyridyl]-3-oxo-1,2-dihydro-3H-1,2,5,7-tetraazainden-6-ylamino}benzonitrile], the negative-log IC50 (pIC50) in assay [1] (setting [5]) was 7.00 to 7.70; in assay [3] (setting [7]) it was > 8.00. For the same compound, the figures for the pEC50 in assay [2] (setting [6]) and in assay [4] were > 7.00 and ≥ 7.00, respectively.

As to `C=CCn1c(=O)c2cnc(Nc3ccc(Cl)cc3)nc2n1-c1cccc(N(C)C2CCN(C)CC2)n1` [Compound 157, 6-[(4-chlorophenyl)amino]-1-{6-[methyl(1-methylpiperidin-4-yl)amino]pyridin-2-yl}-2-(prop-2-en-1-yl)-1H,2H,3H-pyrazolo[3,4-d]pyrimidin-3-one], the figures for the pIC50 in assay [1] (setting [8]) and in assay [3] were < 6.30 and > 8.00, respectively. Besides, the pEC50 in assay [2] (setting [9]) and in assay [4] was 6.30 to 7.00 throughout.

Regarding `C=CCn1c(=O)c2cnc(Nc3ccc(OCC(F)(F)F)cc3)nc2n1-c1ccnc(OC2CCNCC2)n1` [Compound 252, 2-allyl-1-(2-(piperidin-4-yloxy)pyrimidin-4-yl)-6-((4-(2,2,2-trifluoroethoxy)phenyl)amino)-1,2-dihydro-3H-pyrazolo[3,4-d]pyrimidin-3-one], the pIC50 is 7.00 to 7.70 in assay [1] (setting [5]) and > 8.00 in assay [3] (setting [7]). In addition, the figures for the pEC50 in assay [2] (setting [6]) and in assay [4] were > 7.00 and 6.30 to 7.00, respectively.

As for `CCn1c(=O)c2cnc(Nc3ccc4c(c3)ncn4C)nc2n1-c1cccc(OC2CCNCC2)n1` [Compound 318, 2-ethyl-6-((1-methyl-1H-benzo[d]imidazol-5-yl)amino)-1-(6-(piperidin-4-yloxy)pyridin-2-yl)-1,2-dihydro-3H-pyrazolo[3,4-d]pyrimidin-3-one], the figures for the pIC50 in assay [1] (setting [5]) and in assay [3] (setting [7]) were 7.00 to 7.70 and > 8.00, respectively. The pEC50 in assay [2] (setting [6]) and in assay [4] was < 6.00 throughout.

As to `C=CCn1c(=O)c2cnc(Nc3ccc(F)cc3)nc2n1-c1cccc(OC2CCCN(C)CC2)n1` (stereo not drawn) [Compound 317, 2-allyl-6-(p-fluorophenylamino)-1-[6-(1-methyl-4-azepanyloxy)-2-pyridyl]-1,2-dihydro-3H-1,2,5,7-tetraazainden-3-one], the pIC50 in assay [1] (setting [5]) was 7.00 to 7.70; in assay [3] (setting [7]), > 8.00. In addition, the pEC50 in assay [2] (setting [6]) and in assay [4] was 6.30 to 7.00 in each case.
